Measurements reported in US20230118459A1, “ANTIVIRAL TREATMENT” (priority 2020, published 2023).

How the values were obtained:
[1] = tested on: virus (not named) in Huh7 cells; test: Cytopathic effect assay; conditions: for average inhibition (%) at 14 μM / average inhibition (%) at 29 μM: virus added directly after compound; for inhibition at 14 µM: read-out: average inhibition (%) at 14 μM; for inhibition at 29 µM: read-out: average inhibition (%) at 29 μM
[2] = tested on: enveloped viruses, including HIV, IAV, VSV, and SARS; conditions: VSV (Harada, 2005), SARS (Cinatl et al., 2003); cited from earlier work
HCV = conditions: Anggakusuma et al., 2013, read-out: EC50 inhibiting binding and fusion; cited from earlier work
[3] = Huh7 cells, cytopathic effect, 7 days at 33° C.

Row | Molecule | average inhibition (%) at 14 μM ([1]; Huh7 cells, 7 days at 33° C.) | average inhibition (%) at 29 μM ([1]; Huh7 cells, 7 days at 33° C.) | EC30 [1, 3] | also measured
1 | CCCCCCCCCCCCCC(=O)NCCC[N+](C)(C)Cc1ccccc1.O=C([O-])CO [ES001652, Myramistin glycolate] | 17.0% | 36.2% | 23.8 µM | 
2 | CCCCCCCC(=O)[O-].CCCCCCCCCCCCCC(=O)NCCC[N+](C)(C)Cc1ccccc1 [ES001639, Myramistin capiylate] | 17.9% | 42.1% | 22.3 µM | 
3 | CCCCCCCCCCCCCC(=O)NCCC[N+](C)(C)Cc1ccccc1 [ES001071, myristamido-propyl-dimethyl-benzyl-ammonium chloride, reference compound] |  |  | 22.7 µM | inhibition at 14 µM ([1]; Huh-7, 168 h): 8.7%; inhibition at 29 µM ([1]; Huh-7, 168 h): 35.9%
4 | N-(3-(dimethyl 3-methylenethiophenyl ammonio)propyl)myristamide chloride [ES001716] | 13.3% | 51.8% | 21.1 µM | EC50 [1, 3]: 28.1 µM
5 | N-(3-(dimethyl 4-methylenenaphthyl ammonio)propyl)myristamide chloride [ES001715] | 45.4% | 0% | 10.0 µM | 
6 | CCCCCCCCCCCCCC(=O)NCCC[N+](C)(C)Cc1ccc(C)cc1 [ES001706, N-(3-(dimethyl 4-methylbenzylammonio)propyl)myristamide chloride] |  |  |  | inhibition at 14 µM ([1]; Huh-7, 168 h): 23.8%; inhibition at 29 µM ([1]; Huh-7, 168 h): 34.1%
7 | CC1(C)[C@@H](O[C@H]2O[C@H](C(=O)O)[C@@H](O)[C@H](O)[C@H]2O[C@@H]2O[C@H](C(=O)O)[C@@H](O)[C@H](O)[C@H]2O)CC[C@]2(C)[C@H]3C(=O)C=C4[C@@H]5C[C@@](C)(C(=O)O)CC[C@]5(C)CC[C@@]4(C)[C@]3(C)CC[C@@H]12 [Glycyrrhizin] |  |  |  | activity against enveloped viruses [2]: weakly active
8 | Myramistin citrate [ES001637] | 19.5% | 36.8% | 21.1 µM | 
9 | COc1cc(/C=C/C(=O)CC(=O)/C=C/c2ccc(O)c(OC)c2)ccc1O [Curcumin] |  |  |  | EC50 (HCV): 8.46 µM
10 | CCCCCCCCCCCCCC(=O)NCCC[N+](C)(C)CCc1ccccc1.[Cl-] [ES001726, N-(3-(dimethylethylenephenylammonio)propyl)myristamide chloride] | 26.4% | 14.9% | 15.7 µM | 
11 | CCCCCCCCCCCCCC(=O)NCCC[N+](C)(C)Cc1ccc(C#N)cc1 [ES001713, N-(3-(dimethyl 4-cyanobenzylammonio)propyl)myristamide chloride] |  |  | 11.8 µM | EC50 ([1]; Huh-7, 168 h): 16.7 µM; inhibition at 14 µM ([1]; Huh-7, 168 h): 38.3%; inhibition at 29 µM ([1]; Huh-7, 168 h): 79.4%
12 | CCCCCCCCCCCCCC(=O)NCCC[N+](C)(C)Cc1ccccc1.C[C@H](O)C(=O)[O-] [ES001391, Myramistin (L)-lactate] | 0% | 18.5% | 45.1 µM | 
